Holding throughout (type): biochemical
The target in one assay is T1, TrkA Kinase (Homo sapiens, UniProt P04629).
T1 construct: purchased Millipore (KinaseProfiler Service); also Reaction Biology Corp. (Kinase HotSpot)
The assay can be described thus: TrkA kinase assay (KinaseProfiler / Kinase Hotspot). As to the method: (§1) This example illustrated c-Src kinase, Aurora-A kinase, Flt3 kinase, Ret kinase and TrkA Kinase Assays of selected Compounds from this invention (referred to Daniele Fancelli et al, J. Med. Chem., 2006, 49 (24), pp 7247-7251). The KinaseProfiler™ Service Assay Protocols (Millipore) were used to test the kinase inhibiting activity of novel compounds from this invention. To do this, the buffer composition was as: 20 mM MOPS, 1 mM EDTA, 0.01% Brij-35, 5% Glycerol, 0.1% p-mercaptoethanol, 1 mg/mL BSA. Test compounds were initially dissolved in DMSO at the desired concentration, then serially diluted to the kinase assay buffer. In a final reaction volume of […], Aurora-A(h) (5-10 mU) is incubated with 8 mM MOPS pH 7.0, 0.2 mM EDTA, […] LRRASLG (Kemptide), 10 mM MgAcetate and [y33P-ATP]. The reaction was initiated by the addition of the MgATP mix. After incubation for 40 minute at room temperature, the reaction was stopped by addition of […] of a 3% phosphoric acid solution. […] of the reaction was then spotted onto a P30 filtermat and washed three times for 5 minutes in 50 mM phosphoric acid and once in methanol prior to drying and scintillation counting. Wells containing substrate but no kinase and wells containing a phosphopeptide control were used to set 0% and 100% phosphorylation value, repectively.
(§2) Also Kinase Hotspot SM kinase assay was used to test the compounds for IC50 or % inhibitions (Reaction Biology Corp.). Inhibitor IC50 values were determined by titration of compound at the optimal kinase concentration (Kinase EC50).

The next assay has as its target T2, c-Src kinase (Homo sapiens, UniProt P12931).
T2 construct: purchased Millipore (KinaseProfiler Service); also Reaction Biology Corp. (Kinase HotSpot)
The experiment in a line: c-Src kinase assay (KinaseProfiler / Kinase Hotspot). The conditions noted are these: read-out: % Inhibition cSrc. As to the method:
as §1, §2

In a further assay the target is T3, Ret kinase (Homo sapiens, UniProt P07949).
T3 construct: purchased Millipore (KinaseProfiler Service); also Reaction Biology Corp. (Kinase HotSpot)
T3 sequence (P07949 29-1114): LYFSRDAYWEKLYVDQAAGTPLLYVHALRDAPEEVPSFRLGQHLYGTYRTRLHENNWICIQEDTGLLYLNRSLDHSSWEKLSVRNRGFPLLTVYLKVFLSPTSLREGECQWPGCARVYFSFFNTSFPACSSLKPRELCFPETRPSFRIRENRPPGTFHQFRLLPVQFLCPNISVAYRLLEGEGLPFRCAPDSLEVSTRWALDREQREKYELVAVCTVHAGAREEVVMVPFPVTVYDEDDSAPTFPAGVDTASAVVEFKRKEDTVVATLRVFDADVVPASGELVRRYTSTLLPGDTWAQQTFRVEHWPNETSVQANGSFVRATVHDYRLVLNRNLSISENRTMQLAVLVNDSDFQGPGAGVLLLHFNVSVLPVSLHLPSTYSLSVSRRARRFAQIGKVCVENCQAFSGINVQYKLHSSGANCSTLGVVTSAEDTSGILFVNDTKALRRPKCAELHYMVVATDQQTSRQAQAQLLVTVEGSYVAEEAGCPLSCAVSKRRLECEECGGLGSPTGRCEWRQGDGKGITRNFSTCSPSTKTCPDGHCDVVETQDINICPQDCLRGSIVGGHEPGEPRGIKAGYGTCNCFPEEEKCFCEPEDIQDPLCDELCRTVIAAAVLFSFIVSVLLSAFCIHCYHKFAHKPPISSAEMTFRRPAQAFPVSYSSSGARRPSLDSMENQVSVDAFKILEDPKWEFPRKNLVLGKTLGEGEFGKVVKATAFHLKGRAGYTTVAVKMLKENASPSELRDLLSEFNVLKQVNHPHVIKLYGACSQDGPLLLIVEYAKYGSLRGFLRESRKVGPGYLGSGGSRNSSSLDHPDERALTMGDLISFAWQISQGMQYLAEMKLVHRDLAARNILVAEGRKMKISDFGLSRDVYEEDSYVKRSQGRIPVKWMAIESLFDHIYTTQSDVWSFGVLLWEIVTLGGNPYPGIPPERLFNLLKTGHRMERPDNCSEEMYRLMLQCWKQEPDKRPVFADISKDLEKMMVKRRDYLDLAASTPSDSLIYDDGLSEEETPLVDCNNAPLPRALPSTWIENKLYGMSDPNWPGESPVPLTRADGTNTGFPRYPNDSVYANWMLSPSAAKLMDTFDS
The experiment in a line: Ret kinase assay (KinaseProfiler / Kinase Hotspot). As to the method: as §1, §2

For another assay, the target named is T4, Flt3 kinase (Homo sapiens, UniProt P36888).
T4 construct: purchased Millipore (KinaseProfiler Service); also Reaction Biology Corp. (Kinase HotSpot)
T4 sequence (P36888 27-993): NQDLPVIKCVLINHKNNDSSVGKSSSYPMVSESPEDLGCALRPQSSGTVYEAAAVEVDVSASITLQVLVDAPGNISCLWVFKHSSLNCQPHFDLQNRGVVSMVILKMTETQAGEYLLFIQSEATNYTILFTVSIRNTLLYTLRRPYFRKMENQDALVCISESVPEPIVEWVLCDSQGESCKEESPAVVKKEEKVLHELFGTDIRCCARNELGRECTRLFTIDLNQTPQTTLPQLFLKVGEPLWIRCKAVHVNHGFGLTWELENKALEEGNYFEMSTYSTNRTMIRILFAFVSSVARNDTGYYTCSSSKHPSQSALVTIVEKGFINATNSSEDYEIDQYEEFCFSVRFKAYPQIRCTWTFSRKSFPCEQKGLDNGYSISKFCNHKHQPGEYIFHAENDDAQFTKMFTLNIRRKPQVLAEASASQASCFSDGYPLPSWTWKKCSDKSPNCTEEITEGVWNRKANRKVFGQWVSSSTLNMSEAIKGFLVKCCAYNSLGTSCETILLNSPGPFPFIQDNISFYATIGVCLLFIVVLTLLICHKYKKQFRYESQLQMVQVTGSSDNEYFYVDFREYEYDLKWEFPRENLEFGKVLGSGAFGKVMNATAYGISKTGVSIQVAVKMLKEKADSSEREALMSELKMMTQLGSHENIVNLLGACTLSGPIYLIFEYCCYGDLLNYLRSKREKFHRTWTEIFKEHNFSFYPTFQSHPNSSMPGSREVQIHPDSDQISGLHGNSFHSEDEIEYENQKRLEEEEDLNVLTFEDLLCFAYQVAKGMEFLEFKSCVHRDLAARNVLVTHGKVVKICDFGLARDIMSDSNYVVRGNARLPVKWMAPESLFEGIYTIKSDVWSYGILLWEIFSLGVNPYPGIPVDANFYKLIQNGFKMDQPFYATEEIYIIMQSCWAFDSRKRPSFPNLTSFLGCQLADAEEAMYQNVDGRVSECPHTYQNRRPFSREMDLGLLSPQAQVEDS
The assay can be described thus: Flt3 kinase assay (KinaseProfiler / Kinase Hotspot). As to the method:
as §1, §2

In a further assay the target is T5, Aurora-A kinase (Homo sapiens, UniProt O14965).
T5 construct: purchased Millipore (KinaseProfiler Service); also Reaction Biology Corp. (Kinase HotSpot)
T5 sequence (O14965 1-403): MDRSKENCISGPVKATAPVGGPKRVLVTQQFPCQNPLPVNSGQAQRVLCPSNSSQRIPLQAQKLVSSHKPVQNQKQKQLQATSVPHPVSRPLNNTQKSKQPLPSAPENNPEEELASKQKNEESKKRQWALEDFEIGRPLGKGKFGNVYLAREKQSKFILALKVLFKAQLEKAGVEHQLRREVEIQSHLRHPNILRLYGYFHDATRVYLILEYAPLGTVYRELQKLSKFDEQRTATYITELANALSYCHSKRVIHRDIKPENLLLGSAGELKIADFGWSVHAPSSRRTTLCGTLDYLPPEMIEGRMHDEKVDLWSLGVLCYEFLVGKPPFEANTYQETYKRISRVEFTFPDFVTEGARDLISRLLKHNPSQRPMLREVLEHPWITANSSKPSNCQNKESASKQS
The assay can be described thus: Aurora-A kinase assay (KinaseProfiler / Kinase Hotspot). The conditions noted are these: read-out: % Inhibition Auroro-A. On the procedure:
as §1, §2

Bounds are passed on as bounds.

The results in this text go back to patent US9078902B2, “Triazine derivatives and their therapeutical applications” (NantBioScience, Inc., priority 2010, dated 2015).

T2 sequence (P12931 whole entry): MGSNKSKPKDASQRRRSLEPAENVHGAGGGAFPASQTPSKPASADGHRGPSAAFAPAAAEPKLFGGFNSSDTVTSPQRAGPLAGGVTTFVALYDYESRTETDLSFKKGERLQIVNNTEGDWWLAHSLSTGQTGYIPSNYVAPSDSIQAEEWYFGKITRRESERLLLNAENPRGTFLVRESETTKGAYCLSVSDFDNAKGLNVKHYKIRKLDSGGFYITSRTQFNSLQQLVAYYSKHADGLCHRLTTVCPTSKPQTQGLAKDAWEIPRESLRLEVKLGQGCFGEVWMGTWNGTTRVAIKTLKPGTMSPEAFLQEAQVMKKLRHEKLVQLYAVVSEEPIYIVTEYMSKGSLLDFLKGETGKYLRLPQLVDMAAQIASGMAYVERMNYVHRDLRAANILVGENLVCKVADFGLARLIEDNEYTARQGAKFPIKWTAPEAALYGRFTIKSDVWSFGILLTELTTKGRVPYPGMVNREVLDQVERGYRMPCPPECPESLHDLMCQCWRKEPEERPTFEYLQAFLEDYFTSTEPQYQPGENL
T1 sequence (P04629 33-796): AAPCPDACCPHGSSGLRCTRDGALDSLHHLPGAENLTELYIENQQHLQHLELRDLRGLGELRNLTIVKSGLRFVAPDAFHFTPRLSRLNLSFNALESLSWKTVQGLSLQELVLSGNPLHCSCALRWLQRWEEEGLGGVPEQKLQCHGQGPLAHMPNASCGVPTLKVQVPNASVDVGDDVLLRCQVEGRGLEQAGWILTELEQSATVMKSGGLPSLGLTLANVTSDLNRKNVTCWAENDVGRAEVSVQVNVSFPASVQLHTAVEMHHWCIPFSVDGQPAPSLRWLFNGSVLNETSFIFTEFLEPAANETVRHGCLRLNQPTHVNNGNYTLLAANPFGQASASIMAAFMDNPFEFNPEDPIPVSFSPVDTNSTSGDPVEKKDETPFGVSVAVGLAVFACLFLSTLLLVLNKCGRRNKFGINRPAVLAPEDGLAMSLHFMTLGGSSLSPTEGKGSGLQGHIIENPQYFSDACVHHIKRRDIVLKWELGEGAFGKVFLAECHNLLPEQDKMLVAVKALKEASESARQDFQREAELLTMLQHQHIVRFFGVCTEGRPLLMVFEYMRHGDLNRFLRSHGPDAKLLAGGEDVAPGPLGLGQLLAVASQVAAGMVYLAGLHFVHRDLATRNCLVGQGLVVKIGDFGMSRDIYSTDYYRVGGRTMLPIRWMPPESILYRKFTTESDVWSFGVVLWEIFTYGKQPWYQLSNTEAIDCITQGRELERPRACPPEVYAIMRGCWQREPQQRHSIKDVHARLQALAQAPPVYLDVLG

Take `CN1CCN(c2nc(Nc3cc(-c4ccco4)[nH]n3)nc(Sc3ccc(NC(=O)C4CC4)cc3)n2)CC1` [Example 5]: the inhibition at 1 µM at TrkA Kinase is more than 90%; on c-Src kinase, less than 50%; on Ret kinase it was 50 to 90%; against Flt3 kinase it was more than 90%; on Aurora-A kinase, 50 to 90%.

As to `CN1CCN(c2nc(Nc3cc(-c4ccco4)[nH]n3)nc(Sc3ccc(OC(F)(F)F)cc3)n2)CC1` [Example 25], the inhibition at 1 µM against TrkA Kinase was more than 90%; at c-Src kinase, less than 50%; against Ret kinase, less than 50%; on Aurora-A kinase, less than 50%.

For the compound `CN1CCN(c2nc(Nc3cc(-c4ccco4)[nH]n3)nc(Sc3ccc(N)cc3)n2)CC1` [Example 10], the inhibition at 1 µM against TrkA Kinase is more than 90%; on c-Src kinase, less than 50%; against Ret kinase, more than 90%; at Aurora-A kinase, 50 to 90%.

Take `CN1CCN(c2nc(Nc3cc(-c4cccs4)[nH]n3)nc(Sc3ccc(NC(=O)C4CC4)cc3)n2)CC1` [Example 6]: the inhibition at 1 µM against TrkA Kinase was more than 90%; at c-Src kinase, less than 50%; against Ret kinase it was more than 90%; at Aurora-A kinase it was 50 to 90%.

With `CN1CCN(c2nc(Nc3ncc(-c4ccccc4)s3)nc(Sc3ccccc3)n2)CC1` [Example 14], the inhibition at 1 µM on TrkA Kinase was more than 90%; at c-Src kinase, less than 50%; on Ret kinase, less than 50%; at Aurora-A kinase it was less than 50%.

Regarding `CN1CCN(c2nc(Nc3cc(-c4ccco4)[nH]n3)nc(Sc3ccc(Cl)cc3)n2)CC1` [Example 16], the inhibition at 1 µM is more than 90% against TrkA Kinase; less than 50% at c-Src kinase; 50 to 90% on Ret kinase; more than 90% against Flt3 kinase; 50 to 90% on Aurora-A kinase.

Consider `CN1CCN(c2nc(Nc3ncc(-c4cccs4)s3)nc(Sc3cccc(NC(=O)C4CC4)c3)n2)CC1` [Example 31], for which the inhibition at 1 µM against TrkA Kinase, on c-Src kinase, at Ret kinase and on Aurora-A kinase was less than 50% each time.

As for `CN1CCN(c2nc(Nc3cc(-c4ccco4)[nH]n3)nc(Sc3ccccc3)n2)CC1` [Example 9], the inhibition at 1 µM against TrkA Kinase is more than 90%; at c-Src kinase, less than 50%; against Ret kinase, more than 90%; at Aurora-A kinase, 50 to 90%.

`CN1CCN(c2nc(Nc3cc(-c4ccco4)[nH]n3)nc(Sc3ccc(C(F)(F)F)cc3)n2)CC1` [Example 19]: the inhibition at 1 µM against TrkA Kinase is more than 90%; at c-Src kinase it was less than 50%; at Ret kinase, 50 to 90%; on Aurora-A kinase it was 50 to 90%.

For `CN1CCN(c2nc(Nc3cc(-c4ccco4)[nH]n3)nc(Sc3ccc(O)cc3)n2)CC1` [Example 15], the inhibition at 1 µM against TrkA Kinase was more than 90%; at c-Src kinase, 50 to 90%; against Ret kinase, more than 90%; at Aurora-A kinase it was 50 to 90%.

`CN1CCN(c2nc(Nc3cc(-c4ccccc4)[nH]n3)nc(Sc3ccc(NC(=O)C4CC4)cc3)n2)CC1` [Example 28]: the inhibition at 1 µM against TrkA Kinase is more than 90%; at c-Src kinase, less than 50%; against Ret kinase, more than 90%; on Aurora-A kinase it was less than 50%.

On to `CN1CCN(c2nc(Nc3cc(-c4ccco4)[nH]n3)nc(Sc3cc(Cl)cc(Cl)c3)n2)CC1` [Example 22], for which the inhibition at 1 µM on TrkA Kinase is more than 90%; at c-Src kinase, less than 50%; against Ret kinase it was 50 to 90%; on Aurora-A kinase, 50 to 90%.

As for `CN1CCN(c2nc(Nc3cc(-c4ccco4)[nH]n3)nc(Sc3ccccc3Cl)n2)CC1` [Example 18], the inhibition at 1 µM against TrkA Kinase is more than 90%; at c-Src kinase, less than 50%; against Ret kinase, 50 to 90%; at Aurora-A kinase, 50 to 90%.

For the compound `CN1CCN(c2nc(Nc3ncc(-c4cccs4)s3)nc(Sc3ccccc3)n2)CC1` [Example 21], the inhibition at 1 µM against TrkA Kinase, on c-Src kinase, against Ret kinase, on Flt3 kinase and on Aurora-A kinase was less than 50% throughout.

With `CN1CCN(c2nc(Nc3cc(-c4ccco4)[nH]n3)nc(Oc3ccccc3)n2)CC1` [Example 26], the inhibition at 1 µM was more than 90% against TrkA Kinase, 50 to 90% at c-Src kinase, more than 90% against Ret kinase and 50 to 90% on Aurora-A kinase.

With `CN1CCN(c2nc(Nc3cc(-c4ccco4)[nH]n3)nc(Sc3cccc(NC(=O)C4CC4)c3)n2)CC1` [Example 30], the inhibition at 1 µM was more than 90% on TrkA Kinase, 50 to 90% on c-Src kinase, more than 90% at Ret kinase and less than 50% at Aurora-A kinase.

Turning to `CCc1nc(Nc2cc(-c3ccco3)[nH]n2)nc(Sc2ccc(NC(=O)C3CC3)cc2)n1` [Example 8], the inhibition at 1 µM was 50 to 90% against TrkA Kinase, less than 50% on c-Src kinase, 50 to 90% at Ret kinase and less than 50% on Aurora-A kinase.

For the compound `COc1ccc(Sc2nc(Nc3cc(-c4ccco4)[nH]n3)nc(N3CCN(C)CC3)n2)cc1` [Example 24], the inhibition at 1 µM at TrkA Kinase was more than 90%; at c-Src kinase, 50 to 90%; against Ret kinase, more than 90%; on Aurora-A kinase, 50 to 90%.

In the case of `CN1CCN(c2nc(Nc3cc(-c4ccco4)[nH]n3)nc(Sc3ccc(Cl)c(Cl)c3)n2)CC1` [Example 23], the figures for the inhibition at 1 µM at c-Src kinase, against Ret kinase and at Aurora-A kinase were less than 50%, 50 to 90% and 50 to 90%, respectively.

Take `CN1CCN(c2nc(Nc3cc(-c4ccco4)[nH]n3)nc(Sc3cccc(Cl)c3)n2)CC1` [Example 17]: the inhibition at 1 µM on TrkA Kinase was more than 90%; at c-Src kinase, less than 50%; against Ret kinase, 50 to 90%; at Aurora-A kinase, 50 to 90%.

For the compound `CN1CCN(c2nc(Nc3cc(-c4ccco4)[nH]n3)nc(N(C)c3ccccc3)n2)CC1` [Example 27], the inhibition at 1 µM is more than 90% against TrkA Kinase, 50 to 90% at c-Src kinase, more than 90% against Ret kinase and 50 to 90% at Aurora-A kinase.

With `CN1CCN(c2nc(Nc3ccccc3)nc(Nc3cc(-c4ccco4)[nH]n3)n2)CC1` [Example 20], the inhibition at 1 µM at c-Src kinase was 50 to 90%; on Ret kinase it was more than 90%; at Aurora-A kinase it was 50 to 90%.
